Patent US10954188B2, “Isotope-enriched 3-amino-1-propanesulfonic acid derivatives and uses thereof” (RISEN (SUZHOU) PHARMA TECH CO., LTD., priority 2017, dated 2021)
“Also recorded” adds a separate entry of the source. Structures can show the parent of a compound that is named as a salt.

Legend:
[1] = Compound stability in whole mouse blood; format: in vitro ADME; conditions: fresh mouse blood, initial concentration 1.44 μM, 37° C., test (parent) compound at 4 h
Method: Compounds were also evaluated for stability in whole mouse blood. A sample of test compound in fresh mouse blood (at a concentration of 1.44 μM) was incubated at 37° C. for 4 h. An aliquot of the sample was withdrawn, at time 5 min. and time 4 h, for concentration analysis on a LC-MS/MS instrument after converting the blood sample to an analytical sample employing standard sample preparation procedures. The detailed recovery of the compound was not fully evaluated and optimized. The sample was analyzed for the parent compound and the therapeutic compound.

[2] = Pharmacokinetic study in ICR mice, oral (FIGS. 1 and 2); format: in vivo; conditions: for concentration of metabolite (2-carboxy-1-ethanesulfonic acid) in plasma compared to 3APS (of natural abundance): 0.72 mmol/kg, 2 h; for drug metabolism compared to 3APS (of natural abundance) / plasma drug exposure compared to 3APS (of natural abundance): mole-equivalent dose (0.72 mmol/kg)
Method: A compound according to the invention is dissolved in water at a concentration determined by the desired dose and dosing volume for the specific animal to which the compound is to be administered. A calculated volume of dosing solution is administered to the animal (PO, SQ, IP, or IV). A blood sample is collected following administration of the compound at specific time points (such as 10 min., 30 min., 1 h, 2 h, 4 h, 8 h, and 12 h). The blood sample is converted to a plasma sample using standard techniques. A brain sample can also be collected after complete perfusion. The plasma and/or brain samples are analyzed to determine the concentration of relevant compounds (including e.g., administered compounds, therapeutic compounds (e.g., drugs) and metabolites).
(§1) Forty-two male ICR mice, body-weight of 19 to 21 g, are randomized into 7 groups. The animals are administered with an aqueous solution of a test compound by oral gavage. Blood samples are collected into tubes pre-loaded with heparin anticoagulating agent, at time 0.167, 0.5, 1, 2, 4, 8, and 12 h after administration. Blood samples are centrifuged, and plasma samples are isolated for analysis of the test compound (including compounds administered, metabolites, and/or prodrugs). A 400 μL blood sample is collected from each animal, and then the animal is put to sleep with barbiturate anesthesia; perfusion is performed (through the main vein of the heart) with saline at a rate of 5 mL/min., for 6 min. The brain is collected and kept at −40° C. until the sample is analyzed. The protein in the plasma is precipitated and the analytical sample is analyzed on an AB4000-Q-Trap UPLC-MS/MS instrument.

[3] = Compound stability in simulated gastric fluid (SGF); format: in vitro ADME; conditions: 400 μg/mL, 37° C., percentage of initial concentration, LC-MS/MS
Method: Compounds were evaluated for stability in simulated gastric fluid (SGF). A solution of a compound in SGF (400 μg/mL) was incubated at 37° C. for 4 h. An aliquot of the sample was withdrawn, at time 0 and time 4 h, for concentration analysis on a LC-MS/MS instrument. The initial concentration (at time 0) of a compound was considered as 1, and the remaining concentration of the compound at 4-h time point was calculated and expressed as the percentage of the initial concentration.

[4] = Pharmacokinetic study in C57Bl6 mice; format: in vivo; set-up: AUC(0-t): concentration or dose not given beside the values; conditions: mouse, oral gavage, plasma, prodrug; for AUC(0-t): read-out: Prodrug AUCt; for half-life: read-out: Prodrug T1/2 (converted)
Method: as §1
Pharmacokinetic studies were performed in C57B16 mice. The experiments were done using the same protocol described in Example 20. For each compound, 42 animals were used (6 animals per time point, and 7 time points distributed at 10 min, 0.5, 1, 2, 4, 8 and 12 h).

Compound conc. (μM) at 4 h [1] | concentration of metabolite (2-carboxy-1-ethanesulfonic acid) in plasma compared to 3APS (of natural abundance) [2] | Remaining (%) at 4 h [3] | Cmax [4] | AUC(0-t) [4] | half-life [4] | conversion of prodrug to compound 1 in the subject ([2]; plasma) | SMILES | drug metabolism compared to 3APS (of natural abundance) [2] | plasma drug exposure compared to 3APS (of natural abundance) [2]
0.98 µM | much lower | (100) % |  |  |  |  | [2H]C([2H])(N)CCS(=O)(=O)O [Compound 1, 3-amino-3,3-dideuterium-1-propanesulfonic acid] | delayed drug metabolism; also recorded: delayed metabolic profile | improved plasma drug exposure significantly
0.18 µM |  |  | 472 ng/mL | 348 ng·h/mL | 0.6 h |  | [2H]C([2H])(CCS(=O)(=O)O)NC(=O)[C@H](C)N [Compound 2, 3-((L-alanyl)amino)-3,3-dideuterium-1-propanesulfonic acid] |  | 
 |  |  | 22300 ng/mL | 44700 ng·h/mL | 1.9 h |  | [2H]C([2H])(CCS(=O)(=O)O)NC(=O)[C@@H](N)CO [Compound 3, 3-(L-serylamino)-3,3,-dideuterium-1-propanesulfonic acid] |  | 
0.74 µM | much lower | 107% | 39500 ng/mL | 38000 ng·h/mL | 1.5 h | converted easily to 1 | [2H]C([2H])(CCS(=O)(=O)O)NC(=O)[C@@H](N)C(C)C [Compound 4, 3-((L-valyl)amino)-3,3-dideuterium-1-propanesulfonic acid] | delayed drug metabolism | improved plasma drug exposure significantly; also recorded: even greater improvement of drug exposure
0.03 µM |  | 99% | 1090 ng/mL | 782 ng·h/mL | 0.4 h |  | [2H]C([2H])(CCS(=O)(=O)O)NC(=O)[C@@H](N)Cc1ccccc1 [Compound 5, 3-((L-phenylalanyl)amino)-3,3-dideuterium-1-propanesulfonic acid] |  | 
 |  |  | 9920 ng/mL | 16600 ng·h/mL | 1.4 h |  | [2H]C([2H])(CCS(=O)(=O)O)NC(=O)[C@@H](N)Cc1c[nH]cn1 [Compound 6, 3-((L-histidyl)amino)-3,3-dideuterium-1-propanesulfonic acid hydrochloride] |  | 
 |  |  | 672 ng/mL | 1830 ng·h/mL | 0.5 h |  | C[C@H](N)C(=[18O])NCCCS(=O)(=O)O [Compound 13, 3-((^18O-L-alanyl)amino)-1-propanesulfonic acid] |  | 
0.78 µM |  | 104% |  |  |  |  | CC(C)[C@H](N)C(=[18O])NCCCS(=O)(=O)O [Compound 15, 3-((^18O-L-valyl)amino)-1-propanesulfonic acid] |  | 
0.74 µM |  | 96% | 3840 ng/mL | 11900 ng·h/mL | 1.5 h |  | N[C@@H](Cc1ccccc1)C(=[18O])NCCCS(=O)(=O)O [Compound 16] |  | 
1.20 µM |  | 101% | 19000 ng/mL | 14200 ng·h/mL | 1.1 h |  | N[C@@H](Cc1c[nH]cn1)C(=[18O])NCCCS(=O)(=O)O [Compound 17, 3-((^18O-L-histidyl)amino)-1-propanesulfonic acid hydrobromide] |  | 
0.80 µM |  |  |  |  |  |  | [2H]C([2H])(CCS(=O)(=O)O)NC(=[18O])[C@@H](N)C(C)C [Compound 29, 3-((^18O-L-valyl)amino)-3,3-dideuterium-1-propanesulfonic acid] |  | 
